Source: US9226904B2, “Pharmacological treatment of Parkinson's disease” (The United States of America as Represented by the …, priority 2006, dated 2016)

Assays:
[1] = test system: hemi-lesioned 6-OHDA-treated rat; experiment: Rotational activity (contralateral turns) in hemi-lesioned 6-OHDA-treated rat model of Parkinson's disease; type: in vivo; conditions: for direction of turning elicited: daily s.c. dosing, R(+)-8-OHDPAT 0.3 mg/kg; for rotational response on day 15 of once daily administration: SKF 38393 0.1, 0.3 or 1.0 mg/kg with vehicle or with R(+)-8-OHDPAT 0.3 mg/kg, once daily 15 days, FIG. 10
[2] = test system: ΔFosB; experiment: Immunoblot of ΔFosB in denervated striatum of unilateral 6-OHDA-lesioned rats; type: in vivo, rat; conditions: once daily for 15 days; L-DOPA 25 mg/kg plus 6.25 mg/kg benserazide; SKF 38393 1 mg/kg; R(+)-8-OHDPAT 0.3 mg/kg concomitant with SKF 38393; FIG. 9; p<0.05
Description: To test whether a drug-related rise in ΔFosB contributes to dyskinesias elicited by repeated L-DOPA treatment, ΔFosB levels were assessed by immunoblotting. FIG. 8 provides an image of a typical blot. […] Thus a significant target of the treatments of the present invention is contemplated to be ΔFosB in the striatum. Even so, knowledge of the mechanism(s) is not necessary in order to make and use the present invention.

[3] = test system: hemi-lesioned 6-OHDA-treated rat; experiment: Rotational activity (contralateral turns) in hemi-lesioned 6-OHDA-treated rat model of Parkinson's disease; type: in vivo; conditions: for contralateral turning after D1 agonist SKF 38393 (0.1 mg/kg) on test day: 14 days R(+)-8-OHDPAT 0.3 mg/kg or vehicle, then same plus SKF 38393 0.1 mg/kg on test day, observed 3 hr, FIG. 2, p<0.005
Description: Rats were rendered parkinsonian on one side of the brain by unilateral destruction of nigrostriatal dopamine neurons using the selective neurotoxin 6-OHDA and stereotaxic procedures. Animals were allowed to recover for at least 2 weeks following this procedure. Animals were then screened for efficacy of the lesion by subcutaneous injection of L-DOPA (25 mg/kg) plus the decarboxylase inhibitor benserazide (6.25 mg/kg) followed by assessment of motor activity.
Anti-parkinsonian action in the hemi-lesioned 6-OHDA-treated rat model was assessed by the elicitation of rotational activity to the side opposite the lesioned hemisphere (contralateral turns) following drug treatment. The number of contralateral turns was assessed by videotape recording of animals and counting the number of turns.
One group (controls) received a daily subcutaneous injection of vehicle (0.9% saline containing 0.1 mg/kg ascorbate; 1 ml/kg) for 14 days and the other group (8-OHDPAT) received a daily subcutaneous injection of R(+)-8-OHDPAT (0.3 mg/kg in 1 ml/kg volume) for 14 days. Beginning on day 15, both groups of rats were tested for motor activity and dyskinetic activity in response to the D1 receptor partial agonist SKF 38393 or the D2 receptor agonist quinpirole. Such testing was carried out in a randomized fashion with different doses of dopamine agonist being tested every 4th day (e.g. 3 days between dopamine agonist administration). Throughout this testing phase the control group continued to receive daily injection of vehicle and the 8-OHDPAT group continued to receive daily injection of 0.3 mg/kg R(+)-8-OHDPAT. On days when dopamine agonists were tested the vehicle or R(+)-8-OHDPAT was administered simultaneously with the dopamine agonist.

[4] = test system: hemi-lesioned 6-OHDA-treated rat; experiment: Observer assessment of motor dyskinesias (dyskinesia index) during rotational test; type: in vivo; conditions: repeated R(+)-8-OHDPAT administration, 3 hr rotational test
Description: Observer assessment of motor dyskinesias was carried out be viewing the videotaped recording of rats during testing for rotational activity. A dyskinesia score was generated at 10 minute intervals throughout the course of the rotational test (generally 3 hr). Dyskinesia scores were based on the following scale: 0-no evidence of abnormal activity; 1 mild, intermittent forelimb dyskinesia; 2-severe, more persistent forelimb dyskinesia associated with animal directing activity toward forelimb; 3-severe limb and axial dyskinesia associated with loss of balance and consistent “barrel-rolling” activity. The dyskinesia scores that were obtained were averaged to generate a dyskinesia index.
The experiments described in this example were conducted as described above. A dyskinesia index for each animal was determined during a 3 hr rotational test.

[5] = coadministration with levodopa; Bibbiani et al., Neurology 2001; cited from earlier work
[6] = L-DOPA 10 mg/kg + 6.25 mg/kg benserazide, FIG. 1

SMILES	direction of turning elicited [1, 6]	ΔFosB in the denervated striatum [2]	rotational response on day 15 of once daily administration [1]	contralateral turning after D1 agonist SKF 38393 (0.1 mg/kg) on test day [3]	other results
N[C@@H](Cc1ccc(O)c(O)c1)C(=O)O [L-DOPA, levodopa]	almost exclusively contralateral turning	significant increase			contralateral turning on Day 15 relative to Day 1 ([1]; repeated daily s.c. dosing, L-DOPA 10 mg/kg + 6.25 mg/kg benserazide, R(+)-8-OHDPAT 0.3 mg/kg where given, FIG. 1): approximately 3 fold; coordination of the turning response (observed, not quantified) ([1]; upon repeated daily administration, L-DOPA 10 mg/kg + benserazide, R(+)-8-OHDPAT 0.3 mg/kg where given): progressively more uncoordinated
CCCN(CCC)C1CCc2cccc(O)c2C1 (stereo not drawn) [R(+)-8-OHDPAT, 8-hydroxy-2-(di-n-propylamino)tetralin]	ipsilateral turning could be elicited	prevents the D1 agonist-induced rise in ΔFosB	significantly greater contralateral turning response	pronounced contralateral turning	rotational response, pre-screened (primed) versus non-pre-screened (unprimed) rats ([1]; 15 days once daily R(+)-8-OHDPAT 0.3 mg/kg plus SKF 38393 0.3 mg/kg, FIG. 11): no significant difference; anti-parkinsonian action (contralateral turning), chronic and concomitant versus acute administration ([3]; 14 day pretreatment with R(+)-8-OHDPAT 0.3 mg/kg plus concomitant R(+)-8-OHDPAT+SKF 38393 0.3 mg/kg on test day, FIG. 4, p<0.001): significant anti-parkinsonian action greater than all other treatment groups; contralateral turning after D2 agonist quinpirole (0.05 mg/kg) on test day ([3]; 14 days R(+)-8-OHDPAT 0.3 mg/kg, then R(+)-8-OHDPAT plus quinpirole 0.05 mg/kg on test day, vs vehicle plus quinpirole, 3 hr, FIG. 3, p<0.001): significantly greater contralateral turning; dyskinetic behavior (dyskinesia index) elicited by SKF 38393 (3.0 mg/kg) ([4]; FIG. 5): reduced dyskinetic behavior; dyskinetic behavior (dyskinesia index) elicited by quinpirole (0.05 mg/kg) ([4]; FIG. 6): reduced dyskinetic behavior
Oc1cc2c(cc1O)C(c1ccccc1)CNCC2 (stereo not drawn) [SKF 38393]		significant increase	little net contralateral turning	no contralateral turning	
COc1ccccc1N1CCN(CCN(C(=O)C2CCCCC2)c2ccccn2)CC1 [WAY 100635]					effect of 5-HT1A antagonist pretreatment on R(+)-8-OHDPAT-facilitated anti-parkinsonian action of SKF 38393 ([3]; WAY 100635 0.1 mg/kg on test day prior to R(+)-8-OHDPAT 0.3 mg/kg plus SKF 38393 0.3 mg/kg, at least 14 days daily R(+)-8-OHDPAT, FIG. 7): blocked the facilitating effects
Fc1ccc(-c2cncc(CNC[C@H]3CCc4ccccc4O3)c2)cc1 [sarizotan]					motor complications of levodopa treatment [5]: reduced motor complications
